Experimental findings from ChEMBL document CHEMBL1129924, “Synthesis and biological activity of cyclic analogues of MPPG and MCPG as metabotropic glutamate receptor antagonists” (Bioorg Med Chem Lett, 1997) are described below.

pIC50: −log10 of the molar value.

What all share (type): functional
The target of test [1] is Metabotropic glutamate receptor 6 (Rattus norvegicus, UniProt P35349). Kind of test: Antagonistic activity against Metabotropic glutamate receptor 6 was determined at 1 mM; NE = No significant effect observed.
Test [2] addresses T1, Metabotropic glutamate receptor 5 (Rattus norvegicus, UniProt P31424). Kind of test: Antagonistic activity against Metabotropic glutamate receptor 5 was determined.
Test [3] concerns the target Metabotropic glutamate receptor 2 (Rattus norvegicus, UniProt P31421). Description: Antagonistic activity against Metabotropic glutamate receptor 2 was determined.
Test [4] has as its target T2, Metabotropic glutamate receptor 1 (Rattus norvegicus, UniProt P23385). Kind of test: Antagonistic activity against Metabotropic glutamate receptor 1 was determined.
For test [5], the target named is T1, Metabotropic glutamate receptor 5. Kind of test: Antagonistic activity against Metabotropic glutamate receptor 5 was determined at 1 mM; NE = No significant effect observed.
Test [6] addresses T2, Metabotropic glutamate receptor 1. Kind of test: Antagonistic activity against Metabotropic glutamate receptor 1 was determined at 1 mM; NE = No significant effect observed.

Sequence of Metabotropic glutamate receptor 6 (P35349 whole entry): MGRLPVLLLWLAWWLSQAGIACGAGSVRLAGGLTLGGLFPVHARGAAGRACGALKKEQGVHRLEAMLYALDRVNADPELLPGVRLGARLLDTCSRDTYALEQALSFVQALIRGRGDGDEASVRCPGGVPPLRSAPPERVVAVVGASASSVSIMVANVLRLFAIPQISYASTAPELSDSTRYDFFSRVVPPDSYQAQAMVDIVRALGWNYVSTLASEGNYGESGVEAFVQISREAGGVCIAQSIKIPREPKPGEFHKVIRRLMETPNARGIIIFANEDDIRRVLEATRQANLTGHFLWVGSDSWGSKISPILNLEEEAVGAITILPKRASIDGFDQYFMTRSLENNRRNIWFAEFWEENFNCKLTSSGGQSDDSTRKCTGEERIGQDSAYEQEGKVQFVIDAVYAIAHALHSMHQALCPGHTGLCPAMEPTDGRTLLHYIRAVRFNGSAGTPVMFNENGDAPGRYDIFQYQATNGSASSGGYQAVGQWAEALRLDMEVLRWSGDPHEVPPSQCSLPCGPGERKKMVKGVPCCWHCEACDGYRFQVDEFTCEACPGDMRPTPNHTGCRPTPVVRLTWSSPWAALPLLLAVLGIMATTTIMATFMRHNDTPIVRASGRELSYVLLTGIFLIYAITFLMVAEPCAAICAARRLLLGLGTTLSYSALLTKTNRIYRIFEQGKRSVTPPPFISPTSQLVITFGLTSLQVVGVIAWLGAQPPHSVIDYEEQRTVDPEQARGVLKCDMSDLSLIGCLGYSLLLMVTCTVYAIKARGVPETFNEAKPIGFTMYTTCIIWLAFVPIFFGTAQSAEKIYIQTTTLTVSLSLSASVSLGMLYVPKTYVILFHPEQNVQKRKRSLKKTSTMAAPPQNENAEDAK
T1 sequence (P31424 whole entry): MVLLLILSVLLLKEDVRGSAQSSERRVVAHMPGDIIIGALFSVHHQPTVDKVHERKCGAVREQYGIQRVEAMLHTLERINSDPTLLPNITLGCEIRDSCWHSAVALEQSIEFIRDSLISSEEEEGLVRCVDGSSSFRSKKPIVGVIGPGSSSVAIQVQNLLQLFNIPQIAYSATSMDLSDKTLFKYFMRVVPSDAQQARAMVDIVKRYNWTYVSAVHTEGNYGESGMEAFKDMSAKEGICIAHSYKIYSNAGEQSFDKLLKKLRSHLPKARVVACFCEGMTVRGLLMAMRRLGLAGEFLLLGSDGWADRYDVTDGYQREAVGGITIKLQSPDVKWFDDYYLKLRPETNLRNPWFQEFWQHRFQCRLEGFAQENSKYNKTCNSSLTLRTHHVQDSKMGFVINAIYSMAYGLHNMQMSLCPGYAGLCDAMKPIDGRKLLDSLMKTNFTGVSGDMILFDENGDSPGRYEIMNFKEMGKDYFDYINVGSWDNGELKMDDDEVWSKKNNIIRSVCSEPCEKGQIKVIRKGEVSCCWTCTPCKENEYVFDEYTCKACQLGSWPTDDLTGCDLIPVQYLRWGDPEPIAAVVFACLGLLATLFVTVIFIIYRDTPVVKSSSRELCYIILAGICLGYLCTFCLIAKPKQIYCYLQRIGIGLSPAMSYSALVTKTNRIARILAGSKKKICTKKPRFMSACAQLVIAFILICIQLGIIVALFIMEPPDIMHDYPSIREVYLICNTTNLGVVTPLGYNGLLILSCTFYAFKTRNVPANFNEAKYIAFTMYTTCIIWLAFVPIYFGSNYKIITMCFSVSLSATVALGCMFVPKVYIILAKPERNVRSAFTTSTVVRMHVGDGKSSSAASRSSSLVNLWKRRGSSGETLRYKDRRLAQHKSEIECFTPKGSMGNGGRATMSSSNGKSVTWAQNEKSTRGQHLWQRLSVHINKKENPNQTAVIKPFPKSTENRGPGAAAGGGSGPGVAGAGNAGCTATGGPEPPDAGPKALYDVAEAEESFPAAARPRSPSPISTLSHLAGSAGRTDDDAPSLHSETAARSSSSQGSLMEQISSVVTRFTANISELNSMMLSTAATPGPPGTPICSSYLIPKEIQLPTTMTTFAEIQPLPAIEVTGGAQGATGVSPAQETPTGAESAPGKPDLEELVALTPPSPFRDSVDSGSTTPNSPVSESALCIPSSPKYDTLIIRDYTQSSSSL
T2 sequence (P23385 whole entry): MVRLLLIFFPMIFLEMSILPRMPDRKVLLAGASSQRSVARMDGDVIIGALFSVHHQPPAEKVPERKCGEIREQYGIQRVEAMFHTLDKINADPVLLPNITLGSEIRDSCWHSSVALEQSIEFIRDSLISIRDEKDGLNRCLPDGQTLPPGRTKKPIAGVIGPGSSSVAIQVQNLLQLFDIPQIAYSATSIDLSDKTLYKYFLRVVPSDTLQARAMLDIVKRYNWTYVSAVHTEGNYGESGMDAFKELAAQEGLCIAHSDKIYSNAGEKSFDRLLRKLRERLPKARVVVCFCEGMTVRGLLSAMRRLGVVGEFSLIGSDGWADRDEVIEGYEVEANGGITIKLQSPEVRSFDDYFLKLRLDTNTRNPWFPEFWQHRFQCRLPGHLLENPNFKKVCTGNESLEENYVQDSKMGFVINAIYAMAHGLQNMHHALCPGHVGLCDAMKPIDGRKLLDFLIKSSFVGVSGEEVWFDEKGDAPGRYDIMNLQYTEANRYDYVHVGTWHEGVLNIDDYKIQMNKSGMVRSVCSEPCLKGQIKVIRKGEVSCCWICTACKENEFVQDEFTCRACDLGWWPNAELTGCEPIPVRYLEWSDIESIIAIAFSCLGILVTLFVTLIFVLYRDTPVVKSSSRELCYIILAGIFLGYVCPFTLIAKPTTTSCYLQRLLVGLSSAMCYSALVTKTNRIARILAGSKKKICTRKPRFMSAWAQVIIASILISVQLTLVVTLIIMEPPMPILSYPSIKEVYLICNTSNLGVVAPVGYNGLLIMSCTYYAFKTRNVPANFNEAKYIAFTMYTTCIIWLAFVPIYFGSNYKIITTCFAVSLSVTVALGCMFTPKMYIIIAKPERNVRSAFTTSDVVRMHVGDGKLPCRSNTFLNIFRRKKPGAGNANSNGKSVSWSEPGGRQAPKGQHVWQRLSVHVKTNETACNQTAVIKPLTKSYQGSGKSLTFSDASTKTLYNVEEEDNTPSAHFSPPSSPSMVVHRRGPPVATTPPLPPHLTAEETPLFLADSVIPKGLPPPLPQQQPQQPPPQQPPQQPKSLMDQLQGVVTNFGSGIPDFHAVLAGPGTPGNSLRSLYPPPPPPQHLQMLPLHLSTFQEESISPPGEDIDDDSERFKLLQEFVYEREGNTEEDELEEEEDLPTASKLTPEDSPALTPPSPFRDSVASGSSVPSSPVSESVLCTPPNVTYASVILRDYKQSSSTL
Sequence of Metabotropic glutamate receptor 2 (P31421 whole entry): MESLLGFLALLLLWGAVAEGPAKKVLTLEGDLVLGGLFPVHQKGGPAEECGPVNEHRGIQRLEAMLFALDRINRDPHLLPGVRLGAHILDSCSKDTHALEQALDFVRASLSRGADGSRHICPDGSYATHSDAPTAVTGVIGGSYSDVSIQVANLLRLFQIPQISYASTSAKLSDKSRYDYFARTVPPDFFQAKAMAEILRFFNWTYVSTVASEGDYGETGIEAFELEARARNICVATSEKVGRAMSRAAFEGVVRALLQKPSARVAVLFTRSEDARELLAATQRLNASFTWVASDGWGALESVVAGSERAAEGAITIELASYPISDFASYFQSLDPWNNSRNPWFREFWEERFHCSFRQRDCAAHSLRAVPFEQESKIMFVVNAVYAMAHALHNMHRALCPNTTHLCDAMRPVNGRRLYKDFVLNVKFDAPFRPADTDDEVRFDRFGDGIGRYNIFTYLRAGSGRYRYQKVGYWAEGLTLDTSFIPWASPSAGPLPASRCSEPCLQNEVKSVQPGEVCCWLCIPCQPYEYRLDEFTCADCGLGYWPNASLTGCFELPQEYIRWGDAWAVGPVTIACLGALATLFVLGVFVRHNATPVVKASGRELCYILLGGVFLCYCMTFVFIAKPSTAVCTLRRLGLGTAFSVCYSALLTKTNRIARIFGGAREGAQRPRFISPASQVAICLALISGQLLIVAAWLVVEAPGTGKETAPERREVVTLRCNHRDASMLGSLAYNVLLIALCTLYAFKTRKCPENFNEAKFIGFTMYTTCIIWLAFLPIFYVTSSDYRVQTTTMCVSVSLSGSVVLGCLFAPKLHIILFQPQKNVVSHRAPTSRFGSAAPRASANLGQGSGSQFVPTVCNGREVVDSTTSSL

Broadly, the pIC50 is the IC50 on a negative log10 scale, so that one unit is a factor of ten. With `CC1(C)CC(N)(C(=O)O)c2ccc(C(=O)O)cc2O1` (stereo not drawn), in test [1], the IC50 result was “No effect”. For the same compound, the pIC50 in test [2] is 3.45; in test [3], 4.37; in test [4], 4.03.
Turning to `NC1(C(=O)O)CCc2cc(P(=O)(O)O)ccc21` (stereo not drawn), the IC50 entry in test [1], in test [5] and in test [6] was “No effect” each time. The same compound gave a pIC50 in test [3] of 4.52.
